Values of other authors in publication PMC6838683, “Discovery of Human Signaling Systems: Pairing Peptides to G Protein-Coupled Receptors” (Cell, 2019).
Where two headings read alike, the source gives them in different places. No end group written: not given here.

Target: human GPCRs
Parameters: method as in Guide to Pharmacology database
Conditions: cited from earlier work
Description: Supplement mmc1.xlsx, sheet "HumanGPCRLigands" | column: pKi_value; pKd_value; pEC50_value; pIC50_value

[1] = receptor CXCR1 (cxcr1_human, P25024), max reported value, ref Guide to Pharmacology database
[2] = receptor CXCR2 (cxcr2_human, P25025), max reported value, ref Guide to Pharmacology database
[3] = receptor CXCR3 (cxcr3_human, P49682), max reported value, ref Guide to Pharmacology database
[4] = receptor vipr1_human (VIPR1, P32241), max reported value, ref Guide to Pharmacology database
[5] = receptor gnrhr_human (GNRHR, P30968), max reported value, ref Guide to Pharmacology database
[6] = receptor RXFP4 (rl3r2_human, Q8TDU9), max reported value, ref Guide to Pharmacology database
[7] = receptor pacr_human (ADCYAP1R1, P41586), max reported value, ref Guide to Pharmacology database
[8] = receptor vipr2_human (VIPR2, P41587), max reported value, ref Guide to Pharmacology database
[9] = receptor pth2r_human (PTH2R, P49190), max reported value, ref Guide to Pharmacology database
[10] = receptor bkrb1_human (BDKRB1, P46663), max reported value, ref Guide to Pharmacology database
[11] = receptor OPRD1 (oprd_human, P41143), max reported value, ref Guide to Pharmacology database
[12] = receptor OPRM1 (oprm_human, P35372), max reported value, ref Guide to Pharmacology database
[13] = receptor apj_human (APLNR, P35414), max reported value, ref Guide to Pharmacology database
[14] = receptor mrgx1_human (MRGPRX1), Class A orphans, max reported value, ref Guide to Pharmacology database
[15] = receptor OPRK1 (oprk_human, P41145), max reported value, ref Guide to Pharmacology database
[16] = receptor gipr_human (GIPR, P48546), max reported value, ref Guide to Pharmacology database
[17] = receptor ghsr_human (GHSR, Q92847), max reported value, ref Guide to Pharmacology database
[18] = receptor glp1r_human (GLP1R, P43220), max reported value, ref Guide to Pharmacology database
[19] = receptor glp2r_human (GLP2R, O95838), max reported value, ref Guide to Pharmacology database
[20] = receptor kissr_human (KISS1R, Q969F8), max reported value, ref Guide to Pharmacology database
[21] = receptor nmur1_human (NMUR1, Q9HB89), max reported value, ref Guide to Pharmacology database
[22] = receptor nmur2_human (NMUR2, Q9GZQ4), max reported value, ref Guide to Pharmacology database

## CXCL1
[1]
  pKi_value: 6.4
[2]
  pKi_value: 9.7

## CXCL2
[2]
  pIC50_value: 9.1

## CXCL3
[2]
  pIC50_value: 9.2

## CXCL5
[2]
  pIC50_value: 9

## CXCL6
[1]
  pKi_value: 7
[2]
  pKd_value: 7

## CXCL8
[1]
  pKd_value: 8.1
  pKi_value: 9.5
[2]
  pKi_value: 9.5

## CXCL9
[3]
  pKi_value: 8.3

## CXCL10
[3]
  pKi_value: 9.8

## CXCL11
[3]
  pKi_value: 10.5

## CXCL13
Receptor CXCR5 (cxcr5_human, P32302), max reported value, ref Guide to Pharmacology database
  pKd_value: 7.3

## GHRH
[4]
  pKi_value: 6.2

## GnRH I
[5]
  pEC50_value: 10
  pIC50_value: 8.6
  pKd_value: 8.5
  pKi_value: 8.4

## GnRH II (QHWSHGWYPG; ends and bridges not checked; UniProt O43555 24-33, looked up)
[5]
  pIC50_value: 7.9

## INSL5 (Insulin-like peptide INSL5 B … KESVRLCGLEYIRTVIYICASSRW; Insulin-like peptide INSL5 A … QDLQTLCCTDGCSMTDLSALC; UniProt Q9Y5Q6 23-46; Q9Y5Q6 115-135, looked up)
[6]
  pEC50_value: 8.9
  pIC50_value: 8.9
  pKi_value: 8.8

## PACAP-38 [reference compound]
[7]
  pEC50_value: 10.3
  pKi_value: 9
[4]
  pEC50_value: 9.7
  pKi_value: 8.2
[8]
  pEC50_value: 9.3

## PTHrP-(1-36)
Receptor pth1r_human (PTH1R, Q03431), max reported value, ref Guide to Pharmacology database
  pIC50_value: 6.5
[9]
  pIC50_value: 5.7

## PrRP-20 (TPDINPAWYASRGIRPVGRF; not fully specified; ends and bridges not checked; UniProt P81277 34-53, looked up)
Receptor PRLHR (prlhr_human, P49683), max reported value, ref Guide to Pharmacology database
  pKi_value: 9.6

## QRFP43 (QDEGSEATGFLPAAGEKTSGPLGNLAEELNGYSRKKGGFSFRF-NH2; UniProt P83859 91-133, looked up)
Receptor QRFPR (qrfpr_human, Q96P65), max reported value, ref Guide to Pharmacology database
  pEC50_value: 8.6

## SRIF-14
Receptor SSTR1 (ssr1_human, P30872), max reported value, ref Guide to Pharmacology database
  pKi_value: 9.5
Receptor SSTR2 (ssr2_human, P30874), max reported value, ref Guide to Pharmacology database
  pKi_value: 10.5
Receptor SSTR3 (ssr3_human, P32745), max reported value, ref Guide to Pharmacology database
  pKi_value: 10
Receptor SSTR4 (ssr4_human, P31391), max reported value, ref Guide to Pharmacology database
  pKi_value: 9.3
Receptor SSTR5 (ssr5_human, P35346), max reported value, ref Guide to Pharmacology database
  pKi_value: 9.9

## T-kinin (ISRPPGFSPFR)
[10]
  pKi_value: 5.2

## TIP39
[9]
  pIC50_value: 9.2

## VIP
[7]
  pEC50_value: 7.8
  pIC50_value: 6
  pKi_value: 6.3
[4]
  pEC50_value: 7.9
  pIC50_value: 8
  pKi_value: 9
[8]
  pEC50_value: 7.3
  pIC50_value: 8.3
  pKi_value: 8.7

## [Leu]enkephalin
[11]
  pKi_value: 8.7
[12]
  pKi_value: 8.1

## amylin (KCNTATCATQRLANFLVHSSNNFGAILSSTNVGSNTY; not fully specified; cysteine pairing not given here; UniProt P10997 34-70, looked up)
Receptor calcr_human (CALCR), Calcitonin receptors, Class B1 (Secretin), max reported value, ref Guide to Pharmacology database
  pEC50_value: 9.2

## angiotensin II (DRVYIHPF)
Receptor agtr1_human (AGTR1, P30556), max reported value, ref Guide to Pharmacology database
  pIC50_value: 9.3
Receptor agtr2_human (AGTR2, P50052), max reported value, ref Guide to Pharmacology database
  pKd_value: 10.2

## apelin-13
  pIC50_value: 9.5

## apelin-17
[13]
  pIC50_value: 9

## apelin-36 (LVQPRGSRNGPGPWQGGRRKFRRQRPRLSHKGPMPF; not fully specified; UniProt Q9ULZ1 42-77, looked up)
[13]
  pIC50_value: 8.6

## bovine adrenal medulla peptide 8-22
[14]
  pEC50_value: 7.8
  pKd_value: 8
  pKi_value: 7.7

## calcitonin
Receptor calcr_human (CALCR, P30988), Calcitonin receptors, max reported value, ref Guide to Pharmacology database
  pEC50_value: 11.2

## corticotrophin-releasing hormone
Receptor crfr1_human (CRHR1, P34998), max reported value, ref Guide to Pharmacology database
  pKd_value: 9
Receptor crfr2_human (CRHR2, Q13324), max reported value, ref Guide to Pharmacology database
  pKd_value: 7.4

## dynorphin A
[11]
  pKi_value: 7.4
[15]
  pKi_value: 10.8
[12]
  pKi_value: 8.1

## dynorphin A-(1-8)
[11]
  pKi_value: 8.4
[15]
  pKi_value: 9.9
[12]
  pKi_value: 8.4

## dynorphin A-(1-13)
[11]
  pKi_value: 7.8
[15]
  pKi_value: 10.7
[12]
  pKi_value: 8.3

## endothelin-2 (CSCSSWLDKECVYFCHLDIIW; ends and bridges not checked; cysteine pairing not given here; UniProt P20800 49-69, looked up)
Receptor ednra_human (EDNRA, P25101), max reported value, ref Guide to Pharmacology database
  pIC50_value: 8.2

## endothelin-3
Receptor ednrb_human (EDNRB, P24530), max reported value, ref Guide to Pharmacology database
  pKd_value: 11.5

## galanin-like peptide (APAHRGRGGWTLNSAGYLLGPVLHLPQMGDQDGKRETALEILDLWKAIDGLPYSHPPQPS; not fully specified; UniProt Q9UBC7 25-84, looked up)
Receptor galr1_human (GALR1, P47211), max reported value, ref Guide to Pharmacology database
  pIC50_value: 7.1
Receptor galr2_human (GALR2, O43603), max reported value, ref Guide to Pharmacology database
  pIC50_value: 7.7
Receptor galr3_human (GALR3, O60755), max reported value, ref Guide to Pharmacology database
  pIC50_value: 8

## gastric inhibitory polypeptide
[16]
  pKd_value: 8.7
  pKi_value: 9.1

## ghrelin (GSSFLSPEHQRVQQRKESKKPPAKLQPR; not fully specified; ends and bridges not checked; UniProt Q9UBU3 24-51, looked up)
[17]
  pEC50_value: 7.5
  pKd_value: 9.4
  pKi_value: 8.1

## glucagon
[18]
  pKi_value: 7
Receptor glr_human (GCGR, P47871), max reported value, ref Guide to Pharmacology database
  pEC50_value: 9

## glucagon-like peptide 1-(7-36) amide
[18]
  pKi_value: 9.2

## glucagon-like peptide 2
[19]
  pIC50_value: 8.5

## glucagon-like peptide 2-(3-33) (DGSFSDEMNTILDNLAARDFINWLIQTKITD; Glucagon-like peptide 2; UniProt P01275 148-178, looked up, fragment)
[19]
  pIC50_value: 7.4

## humanin
Receptor fpr3_human (FPR3, P25089), max reported value, ref Guide to Pharmacology database
  pEC50_value: 8.9

## kallidin
[10]
  pKi_value: 8.9
Receptor bkrb2_human (BDKRB2, P30411), max reported value, ref Guide to Pharmacology database
  pIC50_value: 9.3

## kisspeptin-13 (LPNYNWNSFGLRF; not fully specified; ends and bridges not checked; UniProt Q15726 109-121, looked up)
[20]
  pKi_value: 8.4

## kisspeptin-14 (DLPNYNWNSFGLRF; not fully specified; ends and bridges not checked; UniProt Q15726 108-121, looked up)
[20]
  pKi_value: 8.8

## kisspeptin-54 (GTSLSPPPESSGSPQQPGLSAPHSRQIPAPQGAVLVQREKDLPNYNWNSFGLRF; ends and bridges not checked; UniProt Q15726 68-121, looked up)
[20]
  pKi_value: 9.5

## lysophosphatidylinositol
Receptor GPR55 (gpr55_human, Q9Y2T6), max reported value, ref Guide to Pharmacology database
  pEC50_value: 7.3

## melanin-concentrating hormone
Receptor mchr1_human (MCHR1, Q99705), max reported value, ref Guide to Pharmacology database
  pKi_value: 10.5
Receptor mchr2_human (MCHR2, Q969V1), max reported value, ref Guide to Pharmacology database
  pIC50_value: 9.2

## neuromedin S-33 (ILQRGSGTAAVDFTKKDHTATWGRPFFLFRPRN; not fully specified; ends and bridges not checked; UniProt Q5H8A3 109-141, looked up)
[21]
  pEC50_value: 10.2
  pIC50_value: 10
[22]
  pEC50_value: 10
  pIC50_value: 9.2

## neuromedin U-25 (FRVDEEFQSPFASQSRGYFLFRPRN-NH2)
[21]
  pEC50_value: 9.4
  pKi_value: 9.5
[22]
  pEC50_value: 9.4
  pKi_value: 9.6

## neuropeptide B-23 (WYKPAAGHSSYSVGRAAGLLSGL)
Receptor npbw2_human (NPBWR2, P48146), max reported value, ref Guide to Pharmacology database
  pIC50_value: 8.4
